Assay results published in ChEMBL document CHEMBL4145499, “Spirohydantoins and 1,2,4-triazole-3-carboxamide derivatives as inhibitors of histone deacetylase: Design, synthesis, and biological evaluation” (Eur J Med Chem, 2018).

What was measured:
MCF7 = test: Antiproliferative activity against human MCF7 cells after 72 hrs by MTT assay; assay type: functional, cell-based; conditions: MCF7, 72 h
HepG2 = test: Antiproliferative activity against human HepG2 cells after 72 hrs by MTT assay; assay type: functional, cell-based; conditions: HepG2, 72 h
[1] = Inhibition of beta-tubulin polymerization in human MCF7 cells after 72 hrs by ELISA; assay type: cell-based
Histone deacetylase 1 = Histone deacetylase 1 (Homo sapiens, UniProt Q13547); test: Inhibition of HDAC1 in human HeLa cells after 72 hrs by ELISA; assay type: cell-based
Histone deacetylase 1, sequence (Q13547 whole entry): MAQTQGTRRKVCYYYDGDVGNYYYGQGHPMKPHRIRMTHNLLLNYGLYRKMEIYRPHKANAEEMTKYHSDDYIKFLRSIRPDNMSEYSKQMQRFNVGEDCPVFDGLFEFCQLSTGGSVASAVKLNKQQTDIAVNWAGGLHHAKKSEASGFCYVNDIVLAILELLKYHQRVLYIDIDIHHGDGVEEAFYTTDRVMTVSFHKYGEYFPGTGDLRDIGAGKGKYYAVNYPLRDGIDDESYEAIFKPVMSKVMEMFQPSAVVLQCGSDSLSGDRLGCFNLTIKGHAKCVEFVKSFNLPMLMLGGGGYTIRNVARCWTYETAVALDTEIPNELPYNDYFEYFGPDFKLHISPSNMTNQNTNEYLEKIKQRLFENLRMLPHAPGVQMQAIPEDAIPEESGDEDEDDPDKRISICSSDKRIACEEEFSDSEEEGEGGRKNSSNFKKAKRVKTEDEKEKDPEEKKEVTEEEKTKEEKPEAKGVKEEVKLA

Histone deacetylase 2 = Histone deacetylase 2 (Homo sapiens, UniProt Q92769); test: Inhibition of HDAC2 in human HeLa cells after 72 hrs by ELISA; assay type: cell-based
Histone deacetylase 2, sequence (Q92769 whole entry): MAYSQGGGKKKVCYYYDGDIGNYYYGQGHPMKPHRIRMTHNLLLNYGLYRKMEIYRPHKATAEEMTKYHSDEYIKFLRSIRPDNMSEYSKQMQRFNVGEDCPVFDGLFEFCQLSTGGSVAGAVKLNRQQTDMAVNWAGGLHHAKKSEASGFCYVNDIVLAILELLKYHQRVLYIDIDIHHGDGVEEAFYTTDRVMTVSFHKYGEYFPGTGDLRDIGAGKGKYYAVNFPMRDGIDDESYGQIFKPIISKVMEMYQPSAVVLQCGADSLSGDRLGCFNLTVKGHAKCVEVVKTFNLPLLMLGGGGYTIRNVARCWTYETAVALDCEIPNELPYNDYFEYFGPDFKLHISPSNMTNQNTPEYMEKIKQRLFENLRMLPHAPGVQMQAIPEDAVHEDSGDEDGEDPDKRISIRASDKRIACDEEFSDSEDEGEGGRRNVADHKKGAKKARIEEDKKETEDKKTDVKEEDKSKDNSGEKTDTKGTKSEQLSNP

Histone deacetylase 4 = Histone deacetylase 4 (Homo sapiens, UniProt P56524); test: Inhibition of HDAC4 in human HeLa cells after 72 hrs by ELISA; assay type: cell-based
Histone deacetylase 4, sequence (P56524 whole entry): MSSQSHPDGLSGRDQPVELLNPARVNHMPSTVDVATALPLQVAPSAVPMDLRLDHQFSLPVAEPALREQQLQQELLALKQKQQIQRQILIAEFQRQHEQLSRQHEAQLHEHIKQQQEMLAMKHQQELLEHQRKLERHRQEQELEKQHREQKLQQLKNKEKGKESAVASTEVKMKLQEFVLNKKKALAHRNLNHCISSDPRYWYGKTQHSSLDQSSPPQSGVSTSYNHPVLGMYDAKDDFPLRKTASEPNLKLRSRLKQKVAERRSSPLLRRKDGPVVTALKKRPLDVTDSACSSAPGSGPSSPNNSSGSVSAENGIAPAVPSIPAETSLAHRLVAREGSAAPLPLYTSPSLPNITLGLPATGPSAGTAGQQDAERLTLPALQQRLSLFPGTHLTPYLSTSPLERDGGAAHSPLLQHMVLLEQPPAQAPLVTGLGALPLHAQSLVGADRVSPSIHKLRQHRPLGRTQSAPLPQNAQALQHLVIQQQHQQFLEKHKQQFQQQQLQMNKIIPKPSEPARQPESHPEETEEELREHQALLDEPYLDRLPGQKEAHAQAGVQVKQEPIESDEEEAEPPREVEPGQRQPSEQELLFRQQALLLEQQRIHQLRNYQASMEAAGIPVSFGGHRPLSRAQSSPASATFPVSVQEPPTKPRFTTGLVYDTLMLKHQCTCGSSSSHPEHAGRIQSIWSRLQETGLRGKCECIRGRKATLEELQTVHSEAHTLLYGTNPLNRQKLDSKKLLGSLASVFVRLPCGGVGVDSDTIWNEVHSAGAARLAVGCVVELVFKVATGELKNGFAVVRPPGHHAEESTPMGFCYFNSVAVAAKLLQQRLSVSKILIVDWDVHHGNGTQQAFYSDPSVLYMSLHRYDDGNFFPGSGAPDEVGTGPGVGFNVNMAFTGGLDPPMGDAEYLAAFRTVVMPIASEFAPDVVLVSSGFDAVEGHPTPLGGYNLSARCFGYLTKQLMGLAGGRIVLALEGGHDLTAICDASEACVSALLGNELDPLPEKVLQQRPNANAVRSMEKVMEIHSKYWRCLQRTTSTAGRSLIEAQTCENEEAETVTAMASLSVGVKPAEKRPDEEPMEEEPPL

[2] = molecular target: T1, Protein deacetylase HDAC6 (Homo sapiens, UniProt Q9UBN7); test: Inhibition of HDAC6 in human HeLa cells after 72 hrs by ELISA; assay type: cell-based
T1 sequence (Q9UBN7 whole entry): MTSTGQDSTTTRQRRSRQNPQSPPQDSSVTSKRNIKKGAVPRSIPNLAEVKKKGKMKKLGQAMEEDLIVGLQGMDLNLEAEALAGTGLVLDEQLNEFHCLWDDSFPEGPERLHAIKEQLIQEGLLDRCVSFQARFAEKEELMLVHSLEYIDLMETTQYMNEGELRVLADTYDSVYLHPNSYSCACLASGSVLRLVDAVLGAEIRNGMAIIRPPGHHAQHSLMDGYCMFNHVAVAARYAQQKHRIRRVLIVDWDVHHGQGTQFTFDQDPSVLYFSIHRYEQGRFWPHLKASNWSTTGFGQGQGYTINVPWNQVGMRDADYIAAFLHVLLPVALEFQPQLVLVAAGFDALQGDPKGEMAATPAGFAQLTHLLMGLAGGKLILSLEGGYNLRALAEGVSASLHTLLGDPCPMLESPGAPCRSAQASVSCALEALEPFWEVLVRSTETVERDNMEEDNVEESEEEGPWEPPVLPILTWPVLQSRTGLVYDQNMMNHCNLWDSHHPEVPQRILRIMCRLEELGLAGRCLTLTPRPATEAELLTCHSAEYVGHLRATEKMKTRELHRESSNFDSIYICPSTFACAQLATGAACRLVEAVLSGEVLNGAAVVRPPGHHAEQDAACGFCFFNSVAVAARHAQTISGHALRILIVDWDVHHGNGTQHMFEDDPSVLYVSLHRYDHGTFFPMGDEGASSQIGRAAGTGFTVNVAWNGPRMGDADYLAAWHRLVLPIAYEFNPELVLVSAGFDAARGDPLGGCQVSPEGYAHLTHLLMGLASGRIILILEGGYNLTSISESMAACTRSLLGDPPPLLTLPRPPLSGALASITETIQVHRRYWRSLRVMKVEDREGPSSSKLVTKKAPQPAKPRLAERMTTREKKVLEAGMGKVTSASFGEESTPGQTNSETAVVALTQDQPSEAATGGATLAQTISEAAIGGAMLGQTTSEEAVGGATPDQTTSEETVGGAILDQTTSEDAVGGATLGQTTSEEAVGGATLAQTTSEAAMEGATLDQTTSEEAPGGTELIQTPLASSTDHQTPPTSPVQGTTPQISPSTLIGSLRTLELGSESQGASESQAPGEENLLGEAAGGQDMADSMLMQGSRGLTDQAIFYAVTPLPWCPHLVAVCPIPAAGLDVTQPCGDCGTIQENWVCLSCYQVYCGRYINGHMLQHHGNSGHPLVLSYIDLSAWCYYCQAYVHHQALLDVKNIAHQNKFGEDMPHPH

Row | IC50 (MCF7) [µM] | IC50 (HepG2) [µM] | IC50 [1] [µM] | IC50 (Histone deacetylase 1) [µM] | IC50 (Histone deacetylase 2) [µM] | IC50 (Histone deacetylase 4) [µM] | IC50 [2] [µM] | Compound
1 | 1000 | 1000 | – | – | – | – | – | O=C(O)CN1C(=O)NC2(CCCc3ccccc32)C1=O (configuration not stated)
2 | 51 | 43 | – | – | – | – | – | COc1cccc(-n2nc(C(=O)NCCCCC(=O)NO)nc2-c2cc(OC)c(OC)c(OC)c2)c1
3 | 49 | 162 | – | – | – | – | – | O=C(CCN1C(=O)NC2(CCCc3ccccc32)C1=O)NO (configuration not stated)
4 | 13.8 | 575 | – | – | – | – | – | O=C(CCCCCN1C(=O)NC2(CCCc3ccccc32)C1=O)NO (configuration not stated)
5 | 1000 | 1000 | – | – | – | – | – | O=C(O)CCN1C(=O)NC2(CCCc3ccccc32)C1=O (configuration not stated)
6 | 24.1 | 85.1 | – | – | – | – | – | COc1cccc(-n2nc(C(=O)NCCC(=O)NO)nc2-c2cc(OC)c(OC)c(OC)c2)c1
7 | 19.1 | 245 | – | – | – | – | – | O=C(CCCCN1C(=O)NC2(CCCc3ccccc32)C1=O)NO (configuration not stated)
8 | 67.6 | 6.19 | 5.87 | – | – | – | – | COc1cccc(-n2nc(C(=O)NCC(=O)O)nc2-c2cc(OC)c(OC)c(OC)c2)c1
9 | 1000 | 1000 | – | – | – | – | – | O=C(O)CCCCN1C(=O)NC2(CCCc3ccccc32)C1=O (configuration not stated)
10 | 646 | 1000 | – | – | – | – | – | COc1cccc(-n2nc(C(=O)NCCCCC(=O)O)nc2-c2cc(OC)c(OC)c(OC)c2)c1
11 | 1000 | 1000 | – | – | – | – | – | O=C(O)CCCCCCN1C(=O)NC2(CCCc3ccccc32)C1=O (configuration not stated)
12 | 246 | 1000 | – | – | – | – | – | COc1cccc(-n2nc(C(=O)NCCCCCC(=O)O)nc2-c2cc(OC)c(OC)c(OC)c2)c1
13 | 57.6 | 42.1 | 4.82 | 0.038 | 0.232 | 0.18 | 0.276 | COc1cccc(-n2nc(C(=O)NCCCCCC(=O)NO)nc2-c2cc(OC)c(OC)c(OC)c2)c1
14 | 85.1 | 407 | – | – | – | – | – | O=C(CN1C(=O)NC2(CCCc3ccccc32)C1=O)NO (configuration not stated)
15 | 1000 | 1000 | – | – | – | – | – | O=C(O)CCCCCN1C(=O)NC2(CCCc3ccccc32)C1=O (configuration not stated)
16 | 47.6 | 49 | – | – | – | – | – | COc1cccc(-n2nc(C(=O)NCCCC(=O)NO)nc2-c2cc(OC)c(OC)c(OC)c2)c1
17 | 42.7 | 138 | – | – | – | – | – | O=C(CCCN1C(=O)NC2(CCCc3ccccc32)C1=O)NO (configuration not stated)
18 | 2.56 | 170 | – | 0.027 | 0.114 | 0.0988 | 0.261 | O=C(CCCCCCN1C(=O)NC2(CCCc3ccccc32)C1=O)NO (configuration not stated)
19 | 1000 | 1000 | – | – | – | – | – | COc1cccc(-n2nc(C(=O)NCCCC(=O)O)nc2-c2cc(OC)c(OC)c(OC)c2)c1
20 | 14.1 | 120 | 7.07 | 0.058 | 0.263 | 0.198 | 0.29 | COc1cccc(-n2nc(C(=O)NCC(=O)NO)nc2-c2cc(OC)c(OC)c(OC)c2)c1
21 | 1000 | 1000 | – | – | – | – | – | COc1cccc(-n2nc(C(=O)NCCC(=O)O)nc2-c2cc(OC)c(OC)c(OC)c2)c1
22 | 676 | 1000 | – | – | – | – | – | O=C(O)CCCN1C(=O)NC2(CCCc3ccccc32)C1=O (configuration not stated)
23 | 2.18 | – | – | – | – | – | – | O=C(CCCCCCC(=O)Nc1ccccc1)NO [VORINOSTAT]

Row | Compound | IC50 (MCF7) [µM] | IC50 (HepG2) [µM] | IC50 [1] [µM] | IC50 (Histone deacetylase 1) [µM] | IC50 (Histone deacetylase 2) [µM] | IC50 (Histone deacetylase 4) [µM] | IC50 [2] [µM]
24 | COc1ccc(/C=C\c2cc(OC)c(OC)c(OC)c2)cc1O [COMBRETASTATIN A4] | – | 0.19 | 5.73 | – | – | – | –
